From patent publication US20250090699A1, “FAP TARGETING CYCLIC PEPTIDES AND CONJUGATES THEREOF” (Novartis AG, priority 2023, published 2025)
Counter-ions that a name gives are not always drawn. Starred links: 1 amine or outer side, 2 acyl side, 3 side chain; linkers in the order of their positions; H or OH if unused. Non-standard residues stand in square brackets, D forms with d. Residues, ends and D or L forms follow the SMILES beside them. Groups on a side chain read outwards from the residue. *: point of attachment. X9 = O=C(O)CN1CCN(CC(=O)O)CCN([C@H](CCC(=O)*)C(=O)O)CCN(CC(=O)O)CC1; AAZTA5 = O=C(O)CN1CCN(CC(=O)O)CC(CCCCC(=O)*)(N(CC(=O)O)CC(=O)O)C1; DOTA = O=C(O)CN1CCN(CC(=O)O)CCN(CC(=O)*)CCN(CC(=O)O)CC1; NODAGA = O=C(O)CN1CCN(CC(=O)O)CCN(C(CCC(=O)*)C(=O)O)CC1; NOTA = O=C(O)CN1CCN(CC(=O)O)CCN(CC(=O)*)CC1; Phe(4-CH2NH2) = NCc1ccc(C[C@H](N)C(=O)O)cc1; Piperazinyl(4-CH2COOH) = O=C(O)CN1CCN(*)CC1; 3Pal(6-NH2) = Nc1ccc(C[C@H](N)C(=O)O)cn1; AEF = NCCOc1ccc(C[C@H](N)C(=O)O)cc1; NMeF = CN[C@@H](Cc1ccccc1)C(=O)O; Ahp(2) = CCCCC[C@H](N)C(=O)O; hSer = N[C@@H](CCO)C(=O)O; AEEA = NCCOCCOCC(=O)O; CO = O=C([*:1])[*:2]; Propyl = CCC*

Key:
mouse FAP [1] = biological target: T1, mouse FAP (Mus musculus, UniProt P97321); experiment: Surface plasmon resonance (SPR) for peptide affinity, mouse FAP; type: binding
T1 construct: biotinylated His, Avi tag, mouse FAP (26-761, FAP-M82Q5); His; Avi tag (biotinylated); purchased AcroBiosystems FAP-M82Q5
T1 sequence (P97321 26-761): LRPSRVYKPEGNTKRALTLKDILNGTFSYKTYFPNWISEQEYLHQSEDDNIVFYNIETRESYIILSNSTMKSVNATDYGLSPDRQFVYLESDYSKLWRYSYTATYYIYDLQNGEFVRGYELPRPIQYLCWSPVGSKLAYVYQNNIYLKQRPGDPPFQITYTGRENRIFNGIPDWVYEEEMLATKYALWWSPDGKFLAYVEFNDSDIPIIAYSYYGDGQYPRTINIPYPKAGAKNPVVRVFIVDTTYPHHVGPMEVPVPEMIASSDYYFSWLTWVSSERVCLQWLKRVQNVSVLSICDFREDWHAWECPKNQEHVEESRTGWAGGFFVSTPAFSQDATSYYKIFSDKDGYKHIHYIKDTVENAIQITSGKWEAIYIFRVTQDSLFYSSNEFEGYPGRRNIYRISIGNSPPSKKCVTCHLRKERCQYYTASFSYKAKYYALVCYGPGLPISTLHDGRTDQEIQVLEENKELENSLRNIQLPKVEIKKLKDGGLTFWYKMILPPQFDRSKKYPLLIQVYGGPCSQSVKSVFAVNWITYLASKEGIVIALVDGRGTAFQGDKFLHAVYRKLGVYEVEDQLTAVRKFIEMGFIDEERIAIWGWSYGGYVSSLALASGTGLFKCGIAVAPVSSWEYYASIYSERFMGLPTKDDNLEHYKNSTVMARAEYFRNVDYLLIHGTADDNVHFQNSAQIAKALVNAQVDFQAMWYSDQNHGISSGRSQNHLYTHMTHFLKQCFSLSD
Method in brief: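 Biotinylated His/Avi-tagged FAP ectodomains (human 26-760, mouse 26-761) captured or immobilized on Biacore sensor chips; peptides run at 25 °C in HBS-EP+ pH 7.6 with 2% DMSO, single-cycle kinetics, 8 concentrations. KD from 1:1 binding-model fit of sensorgrams.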

human FAP = biological target: T2, human FAP (Homo sapiens, UniProt Q12884); experiment: Enzymatic FAP competition assay (Z-Gly-Pro-AMC fluorescence), human FAP; type: biochemical; conditions: read-out: h. FAP, Enz., IC50
T2 construct: the biotinylated His, Avi tag, human FAP (26-760, FAP-H82Q6); His; Avi tag (biotinylated); purchased AcroBiosystems FAP-H82Q6
T2 sequence (Q12884 26-760): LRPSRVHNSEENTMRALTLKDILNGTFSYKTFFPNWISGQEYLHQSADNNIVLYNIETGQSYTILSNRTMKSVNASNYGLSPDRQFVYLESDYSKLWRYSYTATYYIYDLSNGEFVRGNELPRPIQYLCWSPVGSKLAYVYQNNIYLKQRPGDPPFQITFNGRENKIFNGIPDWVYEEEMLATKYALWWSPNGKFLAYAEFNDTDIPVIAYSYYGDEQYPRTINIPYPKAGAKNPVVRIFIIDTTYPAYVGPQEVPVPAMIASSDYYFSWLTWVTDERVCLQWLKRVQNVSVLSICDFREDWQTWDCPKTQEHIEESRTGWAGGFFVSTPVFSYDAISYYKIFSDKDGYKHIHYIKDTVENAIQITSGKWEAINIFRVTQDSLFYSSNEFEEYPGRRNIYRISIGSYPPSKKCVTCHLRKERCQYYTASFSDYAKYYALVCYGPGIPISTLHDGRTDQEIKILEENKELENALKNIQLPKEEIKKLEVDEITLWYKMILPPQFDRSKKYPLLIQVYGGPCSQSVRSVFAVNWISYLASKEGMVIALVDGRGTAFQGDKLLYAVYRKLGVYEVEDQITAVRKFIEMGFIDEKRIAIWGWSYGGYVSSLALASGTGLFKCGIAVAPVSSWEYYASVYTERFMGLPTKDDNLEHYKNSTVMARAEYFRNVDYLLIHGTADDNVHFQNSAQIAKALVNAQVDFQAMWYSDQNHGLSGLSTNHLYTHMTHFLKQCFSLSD
Method in brief: (§1)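 Biotinylated His/Avi-tagged FAP ectodomain (human 26-760, mouse 26-761) at 0.01 nM, preincubated 24 h with peptides (14 concentrations, up to 1 μM) in pH 7.5 phosphate, 150 mM NaCl, 0.05% Tween20, 1% DMSO. Then 50 μM Z-Gly-Pro-AMC, 4 h at 22-24° C; AMC fluorescence (380/460 nm) gave IC50 from duplicate points.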

mouse FAP [2] = biological target: T1, mouse FAP; experiment: Enzymatic FAP competition assay (Z-Gly-Pro-AMC fluorescence), mouse FAP; type: biochemical; conditions: read-out: m. FAP, Enz., IC50
Method in brief: as §1

SMILES | Kd (mouse FAP [1]) | IC50 (human FAP) | IC50 (mouse FAP [2])
CCCCC[C@@H]1NC(=O)[C@H](Cc2ccc(CNC(=O)COCCOCCNC(=O)CN3CCN(CC(=O)O)CCN(CC(=O)O)CCN(CC(=O)O)CC3)cc2)NC(=O)[C@H](Cc2ccccc2)N(C)C(=O)CNC(=O)CNC(=O)[C@H]2CCCN2C(=O)[C@H](CC(=O)O)NC(=O)[C@H](Cc2ccc(O)cc2)NC(=O)CNC(=O)[C@H](Cc2c[nH]c3ccccc23)NC1=O [Example B16, Gly-Gly-NMePhe-F(4amPEG2NHDOTA)-Ahp-Trp-Gly-Tyr-Asp-D-Pro, TFA salt] (cyclo([Ahp(2)]WGYD[dP]GG[NMeF][Phe(4-CH2NH2)]([AEEA-DOTA]))) | 0.01 nM | 0.009 nM | 0.03 nM
CCCCC[C@@H]1NC(=O)[C@H](Cc2ccc(CNC(=O)CN3CCN(CC(=O)O)CCN(CC(=O)O)CCN(CC(=O)O)CC3)cc2)NC(=O)[C@H](Cc2ccccc2)N(C)C(=O)CNC(=O)CNC(=O)[C@H]2CCCN2C(=O)[C@H](CC(=O)O)NC(=O)[C@H](Cc2ccc(O)cc2)NC(=O)CNC(=O)[C@H](Cc2c[nH]c3ccccc23)NC1=O [Example B17, Gly-Gly-NMePhe-F(4amDOTA)-Ahp-Trp-Gly-Tyr-Asp-D-Pro, TFA salt] (cyclo([Ahp(2)]WGYD[dP]GG[NMeF][Phe(4-CH2NH2)](DOTA))) | 0.133 nM | 0.033 nM | 0.158 nM
CCCCC[C@@H]1NC(=O)[C@H](Cc2ccc(OCCNC(=O)CN3CCN(CC(=O)O)CCN(CC(=O)O)CCN(CC(=O)O)CC3)cc2)NC(=O)[C@H](Cc2ccccc2)N(C)C(=O)CNC(=O)CNC(=O)[C@H]2CCCN2C(=O)[C@H](CC(=O)O)NC(=O)[C@H](Cc2ccc(O)cc2)NC(=O)CNC(=O)[C@H](Cc2c[nH]c3ccccc23)NC1=O [Example B23, Gly-Gly-NMePhe-F(4OEtNHDOTA)-Ahp-Trp-Gly-Tyr-Asp-D-Pro, TFA salt] (cyclo([AEF](DOTA)[Ahp(2)]WGYD[dP]GG[NMeF])) | 0.077 nM | 0.012 nM | 0.059 nM
CCCCC[C@@H]1NC(=O)[C@H](Cc2ccc(OCCNC(=O)CN3CCN(CC(=O)O)CCN(CC(=O)O)CCN(CC(=O)O)CC3)cc2)NC(=O)[C@H](Cc2ccccc2)N(C)C(=O)CNC(=O)CNC(=O)[C@H]2CCCN2C(=O)[C@H](CC(=O)O)NC(=O)[C@H](Cc2ccc(N)nc2)NC(=O)CNC(=O)[C@H](Cc2c[nH]c3ccccc23)NC1=O [Example B24, Gly-Gly-NMePhe-F(4OEtNHDOTA)-Ahp-Trp-Gly-3PyA(6NH2)-Asp-D-Pro, TFA salt] (cyclo([AEF](DOTA)[Ahp(2)]WG[3Pal(6-NH2)]D[dP]GG[NMeF])) | 0.066 nM | 0.012 nM | 0.108 nM
CCCCC[C@@H]1NC(=O)[C@H](Cc2ccc(OCCNC(=O)CN3CCN(CC(=O)O)CCN(CC(=O)O)CCN(CC(=O)O)CC3)cc2)NC(=O)[C@H](Cc2ccccc2)N(C)C(=O)CNC(=O)[C@H](CCCCNC(=O)N2CCN(CC(=O)O)CC2)NC(=O)[C@H]2CCCN2C(=O)[C@H](CC(=O)O)NC(=O)[C@H](Cc2ccc(O)cc2)NC(=O)CNC(=O)[C@H](Cc2c[nH]c3ccccc23)NC1=O [Example B25, K(COpipzaa)-Gly-NMePhe-F(4OEtNHDOTA)-Ahp-Trp-Gly-Tyr-Asp-D-Pro] (cyclo([AEF](DOTA)[Ahp(2)]WGYD[dP]K([CO-Piperazinyl(4-CH2COOH)])G[NMeF])) | 0.44 nM | 0.1 nM | 0.38 nM
CCCCC[C@@H]1NC(=O)[C@H](Cc2ccc(OCCNC(=O)CN3CCN(CC(=O)O)CCN(CC(=O)O)CCN(CC(=O)O)CC3)cc2)NC(=O)[C@H](Cc2ccccc2)N(C)C(=O)CNC(=O)[C@H](CCO)NC(=O)[C@H]2CCCN2C(=O)[C@H](CC(=O)O)NC(=O)[C@H](Cc2ccc(O)cc2)NC(=O)CNC(=O)[C@H](Cc2c[nH]c3ccccc23)NC1=O [Example B26, hSer-Gly-NMePhe-F(4OEtNHDOTA)-Ahp-Trp-Gly-Tyr-Asp-D-Pro, TFA salt] (cyclo([hSer]G[NMeF][AEF](DOTA)[Ahp(2)]WGYD[dP])) | 0.105 nM | 0.027 nM | 0.117 nM
CCCCC[C@@H]1NC(=O)[C@H](Cc2ccc(OCCNC(=O)CC[C@H](C(=O)O)N3CCN(CC(=O)O)CCN(CC(=O)O)CCN(CC(=O)O)CC3)cc2)NC(=O)[C@H](Cc2ccccc2)N(C)C(=O)CNC(=O)CNC(=O)[C@H]2CCCN2C(=O)[C@H](CC(=O)O)NC(=O)[C@H](Cc2ccc(O)cc2)NC(=O)CNC(=O)[C@H](Cc2c[nH]c3ccccc23)NC1=O [Example B30, Gly-Gly-NMePhe-F(4OEtNHRDOTAGA)-Ahp-Trp-Gly-Tyr-Asp-D-Pro] (cyclo([AEF](X9)[Ahp(2)]WGYD[dP]GG[NMeF])) | 0.119 nM | 0.019 nM | 0.118 nM
CCCOCC[C@@H]1NC(=O)[C@H](Cc2ccc(CNC(=O)COCCOCCNC(=O)CCCCC3(N(CC(=O)O)CC(=O)O)CN(CC(=O)O)CCN(CC(=O)O)C3)cc2)NC(=O)[C@H](Cc2ccccc2)N(C)C(=O)CNC(=O)CNC(=O)[C@H]2CCCN2C(=O)[C@H](CC(=O)O)NC(=O)[C@H](CCCCNC(=O)N2CCN(CC(=O)O)CC2)NC(=O)CNC(=O)[C@H](Cc2c[nH]c3ccccc23)NC1=O [Example B31, Gly-Gly-NMePhe-F(4amPEG2NHAAZTA)-hS(Pr)-Trp-Gly-K(COpipzaa)-Asp-D-Pro] (cyclo(D[dP]GG[NMeF][Phe(4-CH2NH2)]([AEEA-AAZTA5])[hSer](Propyl)WGK([CO-Piperazinyl(4-CH2COOH)]))) | 0.25 nM | 0.03 nM | 0.1 nM
CCCOCC[C@@H]1NC(=O)[C@H](Cc2ccc(CNC(=O)COCCOCCNC(=O)CCC(C(=O)O)N3CCN(CC(=O)O)CCN(CC(=O)O)CC3)cc2)NC(=O)[C@H](Cc2ccccc2)N(C)C(=O)CNC(=O)CNC(=O)[C@H]2CCCN2C(=O)[C@H](CC(=O)O)NC(=O)[C@H](CCCCNC(=O)N2CCN(CC(=O)O)CC2)NC(=O)CNC(=O)[C@H](Cc2c[nH]c3ccccc23)NC1=O (stereo partly drawn) [Example B33, Gly-Gly-NMePhe-F(4amPEG2NHNODAGA)-hS(pr)-Trp-Gly-K(COpipzaa)-Asp-D-Pro] (cyclo(D[dP]GG[NMeF][Phe(4-CH2NH2)]([AEEA-NODAGA])[hSer](Propyl)WGK([CO-Piperazinyl(4-CH2COOH)]))) | < 0.034 nM | 0.015 nM | 0.039 nM
CCCOCC[C@@H]1NC(=O)[C@H](Cc2ccc(CNC(=O)COCCOCCNC(=O)CN3CCN(CC(=O)O)CCN(CC(=O)O)CC3)cc2)NC(=O)[C@H](Cc2ccccc2)N(C)C(=O)CNC(=O)CNC(=O)[C@H]2CCCN2C(=O)[C@H](CC(=O)O)NC(=O)[C@H](CCCCNC(=O)N2CCN(CC(=O)O)CC2)NC(=O)CNC(=O)[C@H](Cc2c[nH]c3ccccc23)NC1=O [Example B34, Gly-Gly-NMePhe-F(4amPEG2NHNOTA-hS(Pr)-Trp-Gly-K(COpipzaa)-Asp-D-Pro] (cyclo(D[dP]GG[NMeF][Phe(4-CH2NH2)]([AEEA-NOTA])[hSer](Propyl)WGK([CO-Piperazinyl(4-CH2COOH)]))) | < 0.034 nM | 0.007 nM | 0.017 nM
